The target in one experiment is D(2) dopamine receptor (Mus musculus, UniProt P61168). Nature of the experiment: Tested for its binding affinity against Dopamine receptor D2; showed no appreciable affinity at concentration specified.
Experiment [1] concerns the target T1, Alpha-1 adrenergic receptor (Mus musculus, UniProt P97714+P97717+P97718).
T1 sequence (P97714 whole entry): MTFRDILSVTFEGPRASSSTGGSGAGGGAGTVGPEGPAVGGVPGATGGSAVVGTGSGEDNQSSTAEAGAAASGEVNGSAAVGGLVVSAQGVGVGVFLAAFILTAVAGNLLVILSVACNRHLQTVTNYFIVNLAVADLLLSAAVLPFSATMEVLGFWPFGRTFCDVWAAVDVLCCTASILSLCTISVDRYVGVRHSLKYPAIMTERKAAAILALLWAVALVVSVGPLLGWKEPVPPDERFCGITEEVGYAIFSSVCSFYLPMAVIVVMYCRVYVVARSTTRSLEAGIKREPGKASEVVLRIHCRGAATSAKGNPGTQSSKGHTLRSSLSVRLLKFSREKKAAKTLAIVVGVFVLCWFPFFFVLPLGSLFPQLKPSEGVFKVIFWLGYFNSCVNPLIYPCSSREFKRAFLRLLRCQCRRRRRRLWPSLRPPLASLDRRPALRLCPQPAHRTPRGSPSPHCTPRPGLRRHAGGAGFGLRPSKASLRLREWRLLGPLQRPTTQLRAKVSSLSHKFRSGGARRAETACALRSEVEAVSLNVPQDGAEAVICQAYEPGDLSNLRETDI
T1 sequence (P97717 whole entry): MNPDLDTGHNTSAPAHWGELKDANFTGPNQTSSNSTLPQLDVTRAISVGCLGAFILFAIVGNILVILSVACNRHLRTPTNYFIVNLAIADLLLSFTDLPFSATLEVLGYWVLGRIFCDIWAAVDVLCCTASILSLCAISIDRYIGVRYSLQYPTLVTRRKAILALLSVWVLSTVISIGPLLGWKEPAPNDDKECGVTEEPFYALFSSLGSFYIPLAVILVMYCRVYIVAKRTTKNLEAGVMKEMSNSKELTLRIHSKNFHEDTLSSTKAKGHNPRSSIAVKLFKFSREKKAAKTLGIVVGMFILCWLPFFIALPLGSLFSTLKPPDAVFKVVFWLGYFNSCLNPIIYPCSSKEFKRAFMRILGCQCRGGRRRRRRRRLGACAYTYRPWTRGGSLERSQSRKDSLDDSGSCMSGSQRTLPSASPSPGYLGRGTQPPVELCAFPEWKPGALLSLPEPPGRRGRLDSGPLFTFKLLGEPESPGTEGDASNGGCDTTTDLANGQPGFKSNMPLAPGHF
T1 sequence (P97718 whole entry): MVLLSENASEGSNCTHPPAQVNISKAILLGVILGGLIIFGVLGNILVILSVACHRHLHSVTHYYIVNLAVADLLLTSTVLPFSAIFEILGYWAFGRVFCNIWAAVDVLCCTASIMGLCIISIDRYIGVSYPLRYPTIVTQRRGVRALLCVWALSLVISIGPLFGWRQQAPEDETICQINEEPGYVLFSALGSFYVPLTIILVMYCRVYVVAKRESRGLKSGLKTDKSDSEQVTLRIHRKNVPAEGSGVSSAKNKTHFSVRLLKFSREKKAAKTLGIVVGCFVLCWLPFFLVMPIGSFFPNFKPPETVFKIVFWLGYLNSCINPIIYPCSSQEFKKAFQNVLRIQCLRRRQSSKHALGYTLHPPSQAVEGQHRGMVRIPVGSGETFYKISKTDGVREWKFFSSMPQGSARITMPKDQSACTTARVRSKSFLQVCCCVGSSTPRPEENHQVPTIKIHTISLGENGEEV
In words: Tested for its binding affinity against Alpha-1 adrenergic receptor; showed no appreciable affinity at concentration specified. Format: protein assay.

Experiment [2] addresses Serotonin transporter (Rattus norvegicus). In words: Compound was evaluated for inhibition of 5-HT uptake by measuring its ability to inhibit [3H]paroxetine binding to rat cortical membranes.
Experiment [3] concerns the target Muscarinic acetylcholine receptor. Nature of the experiment: Tested for its binding affinity against muscarinic receptor; showed no appreciable affinity at concentration specified. Format: protein assay.
The test system of experiment [4] is Mus musculus. In words: Effective dose required for half maximal potentiation of head twitches observed with 5-HTP after subcutaneous administration (1 hr). Format: functional. Particulars: sc.
Experiment [5] deals with Mus musculus. In words: Effective dose required for half maximal potentiation of head twitches observed with 5-HTP after oral administration (1 hr 30 min). Format: functional.

Chain of D(2) dopamine receptor (P61168 whole entry): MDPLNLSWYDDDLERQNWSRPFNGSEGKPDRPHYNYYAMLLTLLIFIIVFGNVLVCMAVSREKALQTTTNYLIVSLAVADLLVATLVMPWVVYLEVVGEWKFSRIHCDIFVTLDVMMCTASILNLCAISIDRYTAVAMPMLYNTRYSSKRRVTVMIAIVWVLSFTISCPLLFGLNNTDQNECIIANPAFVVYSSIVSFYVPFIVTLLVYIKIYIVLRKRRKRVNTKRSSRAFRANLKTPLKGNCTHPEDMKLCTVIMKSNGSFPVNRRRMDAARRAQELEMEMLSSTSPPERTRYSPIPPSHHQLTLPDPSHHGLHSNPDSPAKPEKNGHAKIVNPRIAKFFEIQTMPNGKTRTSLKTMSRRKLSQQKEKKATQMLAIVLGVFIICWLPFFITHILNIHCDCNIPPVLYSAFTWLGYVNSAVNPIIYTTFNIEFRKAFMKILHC

As to `O=C1Cc2ccccc2N1CCN1CCC(Cc2c[nH]c3ccc(F)cc23)CC1`, the IC50 was over 100 nM at D(2) dopamine receptor, over 100 nM in experiment [1], 3.1 nM in experiment [2] and over 100 nM in experiment [3].
Take `CNCCC(Oc1ccc(C(F)(F)F)cc1)c1ccccc1` (stereo not drawn) [FLUOXETINE]: the ED50 in the experiment with Mus musculus [4] came to 6.3 mg/kg.
On to `COC1=Nc2cccc3cccc(c23)N1CCN1CCC(Cc2c[nH]c3ccc(F)cc23)CC1`, for which the IC50 is over 100 nM on D(2) dopamine receptor, over 100 nM in experiment [1], 22.6 nM in experiment [2] and over 100 nM in experiment [3].
`O=C1c2cccc3cccc(c23)C(=O)N1CCN1CCC(Cc2c[nH]c3ccc(F)cc23)CC1`: the IC50 (on D(2) dopamine receptor; in experiment [1]; in experiment [3]) was over 100 nM each time. The ED50 came out at 2.3 mg/kg in the experiment with Mus musculus [5] and 6.1 mg/kg in the experiment with Mus musculus [4].
On to `O=C1N(CCN2CCC(Cc3c[nH]c4ccc(F)cc34)CC2)c2ccccc2C12CC2`, for which the IC50 is over 100 nM at D(2) dopamine receptor, over 100 nM in experiment [1], 4 nM in experiment [2] and over 100 nM in experiment [3]. Moreover, the ED50 with Mus musculus [5] is over 20 mg/kg.
`Cn1c(=O)c2ccccc2n(CCN2CCC(Cc3c[nH]c4ccc(F)cc34)CC2)c1=O`: the IC50 on D(2) dopamine receptor was over 100 nM; in experiment [1] it was over 100 nM; in experiment [2], 5.9 nM; in experiment [3] it was over 100 nM. Also, the ED50 in the experiment with Mus musculus [5] amounted to 20 mg/kg.
For the compound `O=c1[nH]c2ccccc2c(=O)n1CCN1CCC(Cc2c[nH]c3ccc(F)cc23)CC1`, the IC50 at D(2) dopamine receptor was over 100 nM; in experiment [1], over 100 nM; in experiment [2], 0.5 nM; in experiment [3], over 100 nM. The ED50 in the experiment with Mus musculus [5] is 20 mg/kg.
In the case of `C[Si]1(C)CN(CCN2CCC(Cc3c[nH]c4ccc(F)cc34)CC2)C(=O)c2ccccc21`, the IC50 at D(2) dopamine receptor is over 100 nM; in experiment [1], over 100 nM; in experiment [2], 2.6 nM; in experiment [3], over 100 nM. Further, in the experiment on Mus musculus [5], the ED50 is over 20 mg/kg.
`O=S1(=O)N(CCN2CCC(Cc3c[nH]c4ccc(F)cc34)CC2)c2cccc3c2N1CCC3` [RP-68303] gave a half-inhibitory concentration (IC50) in experiment [2] of 1.2 nM. In addition, in the experiment on Mus musculus [4], the ED50 was 5.1 mg/kg.
Turning to `O=C1CN(CCN2CCC(Cc3c[nH]c4ccc(F)cc34)CC2)S(=O)(=O)c2ccccc21`, the IC50 (at D(2) dopamine receptor; in experiment [1]; in experiment [3]) was over 100 nM each time. In addition, in the experiment with Mus musculus [5], the ED50 is over 20 mg/kg.
As to `O=S(=O)(NCCN1CCC(Cc2c[nH]c3ccc(F)cc23)CC1)c1ccccc1`, the IC50 on D(2) dopamine receptor is over 100 nM; in experiment [1], over 100 nM; in experiment [2] it was 6 nM; in experiment [3], over 100 nM. Also, the ED50 in the experiment with Mus musculus [5] is over 20 mg/kg.
`C[Si]1(C)CN(CCN2CCC(Cc3c[nH]c4ccc(F)cc34)CC2)S(=O)(=O)c2ccccc21`: the IC50 (on D(2) dopamine receptor; in experiment [1]; in experiment [3]) was over 100 nM each time.
Take `CN1c2cccc3cccc(c23)N(CCN2CCC(Cc3c[nH]c4ccc(F)cc34)CC2)S1(=O)=O`: the IC50 on D(2) dopamine receptor was over 100 nM; in experiment [1] it was over 100 nM; in experiment [2], 3.7 nM; in experiment [3] it was over 100 nM. The ED50 with Mus musculus [5] was over 20 mg/kg.
In the case of `O=S1(=O)Nc2cccc3cccc(c23)N1CCN1CCC(Cc2c[nH]c3ccc(F)cc23)CC1`, the IC50 at D(2) dopamine receptor is over 100 nM; in experiment [1], over 100 nM; in experiment [2] it was 12 nM; in experiment [3] it was over 100 nM.
As for `O=S1(=O)c2ccccc2CN1CCN1CCC(Cc2c[nH]c3ccc(F)cc23)CC1`, the IC50 at D(2) dopamine receptor is over 100 nM; in experiment [1], over 100 nM; in experiment [2] it was 1 nM; in experiment [3], over 100 nM. The ED50 with Mus musculus [5] turned out to be 7.2 mg/kg; in the experiment on Mus musculus [4], 4.5 mg/kg.
Take `CN(CCN1CCC(Cc2c[nH]c3ccc(F)cc23)CC1)S(=O)(=O)c1ccccc1`: the IC50 was over 100 nM at D(2) dopamine receptor, over 100 nM in experiment [1], 30 nM in experiment [2] and over 100 nM in experiment [3].
Regarding `O=C1Nc2cccc3cccc(c23)N1CCN1CCC(Cc2c[nH]c3ccc(F)cc23)CC1`, the IC50 at D(2) dopamine receptor is over 100 nM; in experiment [1], over 100 nM; in experiment [2] it was 1.5 nM; in experiment [3], over 100 nM. The ED50 worked out at 2 mg/kg with Mus musculus [5] and 4 mg/kg in the experiment on Mus musculus [4].
In the case of `CC1(C)CN(CCN2CCC(Cc3c[nH]c4ccc(F)cc34)CC2)C(=O)c2ccccc21`, the IC50 is over 100 nM on D(2) dopamine receptor, over 100 nM in experiment [1], 3.8 nM in experiment [2] and over 100 nM in experiment [3]. In addition, the ED50 in the experiment on Mus musculus [5] amounted to 20 mg/kg.
`O=C1CSc2ccccc2N1CCN1CCC(Cc2c[nH]c3ccc(F)cc23)CC1`: the IC50 at D(2) dopamine receptor is over 100 nM; in experiment [1], over 100 nM; in experiment [2], 1.1 nM; in experiment [3], over 100 nM. For the same compound, the 50% effective dose (ED50) with Mus musculus [5] is over 20 mg/kg.
For the compound `O=C1Nc2ccccc2S(=O)(=O)N1CCN1CCC(Cc2c[nH]c3ccc(F)cc23)CC1`, the IC50 was over 100 nM at D(2) dopamine receptor, over 100 nM in experiment [1], 2.1 nM in experiment [2] and over 100 nM in experiment [3]. Also, the ED50 with Mus musculus [5] was over 20 mg/kg.

The values are drawn from ChEMBL document CHEMBL1127103, “New indole derivatives as potent and selective serotonin uptake inhibitors” (Bioorg Med Chem Lett, 1993).
